The source of these data is patent US6825178B1, “Methods and products for treating pseudomonas infection” (The Brigham and Women's Hospital, Inc., priority 1996, dated 2004).

Marks after values point to notes of the source that are not given here.

For one assay, the system named is A549 cells. As to the kind of experiment: Inhibition of internalization of P. aeruginosa strain PAO1 into A549 cells. Conditions: 1 nM peptide. The class given is cell-based, human. The procedure: WI-38 (human diploid lung cell line, ATCC. no. CCL-75) and A549 cells (human lung carcinoma cells, ATCC no. CCL-185) were obtained from the ATCC and grown according to their instructions.
Bacterial ingestion assay. Cells were released from monolayers in tissue culture flasks by 5 min. of incubation with trypsin-versene mixture (BioWhitaker, Walkersville, Md.), washed, counted and seeded into 96-well tissue culture plates at 10^5 cells/well in supplemented F-12 medium and incubated at 37° C. in 5% CO2. Fresh cultures of P. aeruginosa grown overnight at 37° C. on a tryptic soy agar plate were suspended in supplemented F-12 medium to prepare the bacterial inoculum. Then 10^6 colony forming units (cfu) of the bacterial inoculum were added per well of 10^5 epithelial cells. […] Three to 9 replicates were obtained per point, and analyzed using analysis of variance (ANOVA) and the Fisher PLSD statistic to determine pairwise differences.
Inhibition of ingestion in the presence of membranes isolated from C127 cells, monoclonal antibodies to extracellular domains of CFTR, or synthetic peptides corresponding to the first or fourth extracellular domains of CFTR was evaluated by adding these materials to the bacteria prior to adding them directly into wells for evaluation of bacterial uptake. […]

Assay [1] deals with P. aeruginosa strain PAO1. Description: Neonatal mouse model of infection, CFTR peptide added to bacterial inoculum. Type of assay: in vivo. Particulars: 7-day old mice, 10 nM peptide added to PAO1 inoculum, intranasal, 24 hours after infection; for Median cfu (10th-90th percentile cfu) P. aeruginosa internalized per mg. lung tissue: gentamicin-exclusion. Here is the method: Neonatal mouse model of infection. Seven-day old neonatal Balb/c mice were infected with ˜10^8 cfu of stain PAO1 delivered intranasally as described, with the addition of 10 nM of a synthetic peptide corresponding to either the first or fourth extracellular domains of CFTR to the bacterial inoculum. Twenty-four hours later 7 animals were killed, right and left lungs removed, weighed and dispersed into single cell suspensions by grinding through a fine-mesh wire screen. An aliquot was removed, Triton X-100 added to a final concentration of 0.5% to release intracellular bacteria and the total cfu of bacteria present in each lung determined. The remaining portion of the lung cell suspension was treated with 300 μg gentamicin/ml for 60 minutes to kill extracellular P. aeruginosa. The cells were then pelleted in a centrifuge (400×g, 10 minutes), washed twice in RPMI medium, and resuspended in 200 μl of 0.5% Triton X-100 to release intracellular bacteria that survived the gentamicin treatment. These suspensions were diluted and plated for bacterial enumeration. The cfu per milligram lung weight was calculated and differences among groups analyzed by nonparametric statistics (Mann-Whitney U test) due to outliers in some groups.
To confirm that binding and internalization of P. aeruginosa by the first predicted extracellular domain of CFTR is important in resistance to lung infection, 7-day old Balb/c mice were nasally inoculated with 10^8 cfu of P. aeruginosa stain PAO1 mixed with either 10 nM of the peptide corresponding to the first or fourth predicted extracellular domains of CFTR and the course of bacterial infection was followed for over 24 hours. […] Thus, inhibiting P. aeruginosa internalization by blocking the bacterial interaction with CFTR in the lung leads to increased bacterial counts in this tissue, indicating an important mechanism for clearance of P. aeruginosa from the lung following inhalation of these organisms.

Setting [2] is: listed as First extracellular domain.
[3] abbreviates: listed as first extracellular domain peptide.
Where [4] appears, read: listed as Fourth extracellular domain.

Consider “GRIIASYDPDNKEER (listed as Homo Sapiens) [First domain]”, for which the “Mean cfu (standard deviation) of P. aeruginosa internalized” value with A549 cells is reported as 3.2833 × 10^4 (4.32 × 10^3)^a cfu. For the same sequence, in assay [1] (setting [2]), the “Median cfu (10th-90th percentile cfu) P. aeruginosa internalized per mg. lung tissue” value is 0 (0-278) cfu per mg lung tissue and the “Median cfu (10th-90th percentile cfu) P. aeruginosa total per mg. lung tissue” value is 152,419 (37,860-519,612) cfu per mg lung tissue. Besides, in assay [1] (setting [3]), the “Median cfu (10th-90th percentile cfu) P. aeruginosa internalized per mg. lung tissue” value is given as “virtually no internalized P. aeruginosa” and the “Median cfu (10th-90th percentile cfu) P. aeruginosa total per mg. lung tissue” value was ~1.5×10^5 cfu per mg lung tissue.

With “LWLLGNTPLQDKGNSTHSRNNSYAVIITSTS (listed as Homo Sapiens) [Fourth domain, reference compound]”, the “Mean cfu (standard deviation) of P. aeruginosa internalized” value with A549 cells is 8.7333 × 10^4 (1.1506 × 10^4) cfu. For the same sequence, the results for the “Median cfu (10th-90th percentile cfu) P. aeruginosa internalized per mg. lung tissue” value in assay [1] (setting [4]) and in assay [1] (listed as fourth extracellular domain peptide) were 13,246 (3,578-49,558) cfu per mg lung tissue and > 10^4 cfu per mg lung tissue, respectively. Moreover, the “Median cfu (10th-90th percentile cfu) P. aeruginosa total per mg. lung tissue” value in assay [1] (setting [4]) is 20,450 (4,000-61,008) cfu per mg lung tissue; in assay [1] (listed as fourth predicted extracellular domain) it was ~2×10^4 cfu per mg lung tissue.
